Measurements published in patent US20220160779A1, “COMPOSITION FOR PROMOTING CARTILAGE TISSUE REGENERATION” (National University Corporation Tokyo Medical and Dental …, priority 2019, published 2022).

Assays:
synovial MSCs [1] = assay: Proliferation assay of synovial MSCs with recombinant protein (MTT assay); type: cell-based, human; conditions: rh Activin A at ED50x10 and ED50x100 in 10% FBS and 0.5% FBS medium, days 0-7; FIGS. 5C and D
Description: Primary human synovial cells were isolated from the synovial tissues obtained from patients who underwent total knee arthroplasty (TKA), as described in Sekiya I. et al, Clin Orthop Relat Res, 2015, 473(7), pp. 2316 to 2326. That is, first, 0.5 to 1 mg of synovium obtained by incising the suprapatellar bursa was subjected to collagenase D treatment (Sigma, MO, USA, 3 hours at 37° C.) to disperse nucleated cells. Debris was removed by passing the cell dispersion through a 70 μm nylon mesh. Nucleated cells were seeded in a 15 cm dish at 5.7×10^2 cells/cm^2 and maintained and cultured in MEM-alpha medium supplemented with 10% FBS and antibiotics (Gibco, MA, USA) for 14 days. The cells were then separated from the dish in TripLE solution (Gibco) and seeded twice more in a new dish to obtain a sufficient cell count to be used in the experiments. Note that in all experiments, cells within 6 passages were used.
To evaluate the pro-proliferative activity of recombinant proteins (IL6, IL8, IL10, and Activin A), MTT assays were performed (see FIGS. 3C and 5C-E). Synovial MSCs were seeded to 1×10^3 cells/well in 96-well plates and cultured in 0.2 mL of normal growth medium 1 day before being subjected to recombinant protein treatment. On the following day, the medium was replaced with a fresh one (normal growth medium or medium with a reduced FBS concentration of 0.5% and recombinant protein added (10 times the concentration of ED50 or 100 times the concentration of ED50)). MTT assays were performed at days 0, 1, 3, 5, and 7 according to the method described in Denizot F. et al., J Immunol Methods, 1986, 89(2), pp. 271 to 277.
In addition, the present inventors tried to clarify the molecular mechanism of MSC proliferative activity by Activin A. It has been reported that the ERK and PI3K signal transduction pathways are activated for MSC proliferation (see Uomizu, M. et al, J Med Dent Sci., 2018, vol. 65, pp. 73 to 82). With the above in mind, Activin A (rh Activin A) was applied to synovial MSCs in the presence of PI3K-PKB/Akt and Erk1/Erk2, a specific inhibitor for each of these signal transduction pathways, and the cell count was measured by MTT assay.

Akt = assay: Western blotting, phosphorylation of Akt in synovial MSCs; type: cell-based, human; conditions: FIG. 5F
Description: (§1) Synovial MSCs were seeded in 6 cm dishes to reach a cell count of 2×10^5, and cultured in normal growth medium for 1 day. The medium was replaced with fresh medium with reduced amount of FBS (MEM-alpha, 0.5% FBS and antibiotics) and cultured for one more day. The cells were treated with rh Activin A and/or PDGF-AA (amount 3 times the ED50) for up to 30 minutes. Then, those cells were lysed with cell lysis buffer (#9803S; Cell Signaling Technology, MA) to prepare total cell lysate.
(§2) Western blotting was performed as described in Uomizu, M. et al, J Med Dent Sci. vol. 65, pp. 73 to 82. The antibodies used were purchased from Cell Signaling Technology (phospho-p44/42 (#4370), p44/42 (#9102), phospho-Akt (#9271), and Akt (#9272)).

p44/42 MAPK (Erk1/2) = assay: Western blotting, phosphorylation of p44/42 MAPK (Erk1/2) in synovial MSCs; type: cell-based, human; conditions: FIG. 5F
Description: as §1, §2

[2] = tested on: MSCs positive for CD73, CD90, CD105, CD44; assay: Expression analysis of MSC surface antigens (flow cytometry); type: cell-based, human; conditions: cultured 2 weeks in the presence of rh Activin A; FIG. 6A
Description: Cells were isolated by treatment with TrypLE (Thermo Fisher Scientific, MA, USA) for 5 minutes and stained with antibodies as described in Tsuji K. et al, Cell Transplant. 2017, 26(6), pp. 1089 to 1102. The surface antigen positive cell fraction was then measured using FACS Verse Flow Cytometer (BD Biosciences). Note that fluorochrome-conjugated antibodies for the analysis of cell surface markers (CD73, CD90, CD105, and CD44) were purchased from BD Biosciences (NJ).
To evaluate the effect of activin on the stemness of MSCs, they were cultured for 2 weeks in the presence of rh Activin A, and changes in the expression level of MSC surface antigens were examined by flow cytometric analysis.

synovial MSCs [3] = assay: In-vitro differentiation assay of MSCs (cartilage, bone, adipocytes); type: cell-based, human
Description: In-vitro differentiation assays were performed according to the method described in Colter D C. et al, Proc Natl Acad Sci USA, 2001, 98, pp. 7841 to 7845.
To form chondrogenic spheroids, 2.5×10^5 cells were transferred into 15 mL polypropylene tubes (BD Biosciences) and subjected to centrifugation at 450×g for 10 minutes. Then, the cell pellets were cultured in chondrogenic medium containing 1000 ng/mL rhBMP-2 (Infuse Bone Graft; Medtronic, TN, USA), 10 ng/mL […], and 100 nM dexamethasone (Sigma-Aldrich, MO, USA) for 14 days.
For calcification, cells were cultured in normal growth medium supplemented with 1 nM dexamethasone, 20 mM β-glycerophosphate, and 50 μg/mL ascorbic acid-2-phosphate (Sigma-Aldrich) for 21 days. Calcified nodule formation was visualized by alizarin red staining (Sigma-Aldrich).
For adipogenesis, the cells were cultured for 21 days in MEM-alpha supplemented with 10% FBS, 100 nM dexamethasone (Sigma-Aldrich), 0.5 mM IBMX (isobutyl-1-methylxanthine; Sigma-Aldrich), and 50 μM indomethacin (Wako, Tokyo, Japan). The adipogenic cultures were immobilized and stained with Oil Red O solution (Sigma-Aldrich).

[4] = tested on: rat model of total articular cartilage loss; assay: Full thickness articular cartilage defect model; type: in vivo; conditions: 4 weeks after the defect, FIG. 8
Description: Next, in order to verify the regeneration of damaged articular cartilage and the suppression of degenerative degeneration, a model of full thickness articular cartilage defect was prepared to examine the effects of rh Activin A administration. Specifically, a 1.4 mmφ total articular cartilage loss was prepared in the femoral intercondylar region using an airtome, and 180 ng of Activin A (rh Activin A) was injected intra-articularly 1 week later.

[5] = tested on: rheumatoid arthritis-derived synovial cells (mesenchymal cells); conditions: cited from earlier work
[6] = Activin A alone, MSCs serum-starved 24 hours, within 30 minutes
[7] = Activin A together with PDGF-AA

Substance: Activin A: homodimer of two inhibin βA chains; recombinant human protein purchased from R&D Systems
- proliferation of MSCs (MTT assay) (synovial MSCs [1]): significantly activated
- phosphorylation of Akt (Akt; [6]): not detected
- phosphorylation of Akt by PDGF (Akt; [7]): enhanced
- phosphorylation of Erk1/2 (p44/42 MAPK (Erk1/2); [6]): not detected
- intracellular Erk phosphorylation (p44/42 MAPK (Erk1/2); [7]): no enhancement
- cell population positive for MSC-related antigens (CD73, CD90, CD105, CD44) [2]: no change
- production of cartilage matrix (synovial MSCs [3]; added to chondrogenic differentiation medium, pellet culture 2 weeks, FIG. 6C): no significant promotive effect
- differentiation induction toward chondrocytic, osteoblastic and adipocytic cells (synovial MSCs [3]; after 2 weeks of culture in the presence of Activin A, vs control, FIG. 6B): no significant changes
- degenerative degeneration of articular cartilage around the defect site ([4]; 180 ng intra-articular, safranin O): significantly suppressed
- chondrogenic differentiation of the formed tissue [4]: no significant promotion effect
- formation of fibrocartilage-like tissue in the articular cartilage defect site ([4]; intra-articular 1 week after defect (rh Activin A 180 ng/knee, rrPDGF-AA 900 ng/knee), vs PBS): promote the formation of fibrocartilage-like tissue
- proliferation of rheumatoid arthritis-derived synovial cells [5]: promotes the proliferation
